# Data taken from paper PMC5844530, “Fosmetpantotenate (RE-024), a phosphopantothenate replacement therapy for pantothenate kinase-associated neurodegeneration: Mechanism of action and efficacy in nonclinical models” (PLoS ONE, 2018).
# Several values for one entry are separate records, joined by “and”; a condition that tells them apart may be missing. Equal values may be shown once.
# Assays:
# [1] = Pharmacokinetics in whole blood, cynomolgus monkeys
# Procedure: (§1) The whole blood samples (0.5 mL) were collected into syringes that were prefilled with 2.5 mL of ice-cold 0.1% formic acid in acetonitrile. The volume ratio of the whole blood to 0.1% formic acid in acetonitrile was 1/5 (v/v). Samples were frozen (-70°C) until analyzed by LC-MS/MS.
# (§2) Standard curves and quality control (QC) samples were prepared fresh on the day of analysis by serial dilution of the standard mixture in quenched whole blood (1 part of blood to 5 parts of 0.1% formic acid in acetonitrile) and centrifuged. […] The frozen study samples were thawed in an ice/water bath and centrifuged. Supernatant (50 μL) from standards, QC samples, and study samples was transferred to a 96-well plate and dried completely under nitrogen. The dried residues were reconstituted with 100 μL of 0.1% formic acid in water containing internal standard (5 ng/mL of ^15N/^13C3-RE-024-02) and analyzed by LC-MS/MS.
# (§3) LC-MS/MS analysis for blood pharmacokinetic samples: Samples were analyzed using an Agilent 1100 binary pump (Agilent Technologies, Santa Clara, CA, USA), connected to an AB Sciex API 6500 mass spectrometer (SCIEX, Framingham, MA, USA). An electrospray ionization source was used, scanning in the positive mode. […] The chromatography column was a Varian Metasil AQ 120–5 C18 column, 5 μm, 50 x 2.00 mm (Part No. A0530050X020) at ambient temperature, with a 0.5 mL/min flow rate and a 20 μL injection volume. Mobile phase (A) consisted of 0.1% formic acid in water; while mobile phase (B) consisted of 0.1% formic acid in acetonitrile:water (9:1, v/v).
# (§4) Quantitation of in vivo samples: Peak areas were integrated using Analyst software (AB Sciex, Concord, Ontario, Canada). […] Calibration standards (at a minimum 7 per curve) were fit by linear regression with (1/x^2) weighting. QC samples were used (triplicate) at 3 concentrations for all tandem mass spectrometry (MS/MS) runs.
# (§5) Pharmacokinetic calculations: PK analysis was performed using Phoenix WinNonlin®, Build 6.3.0.395 (Certara, Princeton, NJ, USA) using a non-compartmental model (PO dose = model 200 for extravascular dosing). […] Post-dose concentrations below the limit of quantitation (BLQ) were omitted from calculation.
# [2] = Pharmacokinetics in whole blood, Sprague-Dawley rats; conditions: for % Parent AUCAll: Sprague-Dawley rat, metabolite AUCall/Parent AUCall x 100; for Whole Blood Conc. of compound 1: Sprague-Dawley rats; for concentration at 0.167 h / concentration at 0.33 h: Sprague-Dawley, rat, in vivo, po, Whole Blood Conc. of compound 1, Sprague-Dawley rats
# Procedure: as §1, §2, §3, §4, §5
# [3] = Pharmacokinetics in whole blood, CD-1 mice; conditions: for % Parent AUCAll: CD1 mouse, metabolite AUCall/Parent AUCall x 100; for Compound 1 Whole Blood Conc.: CD-1 mice, 100 mg/kg RE-024-02 by PO, individual animals
# Procedure: as §1, §2, §3, §4, §5
smiles,measurement,setting,value
COC(=O)CCNC(=O)[C@@H]1OP(=O)(N[C@@H](C)C(=O)OC)OCC1(C)C (some centres unmarked) [Compound 1],% Parent AUCAll,"[1]; Cynomolgus monkey, 300 mg/kg PO, metabolite AUCall/Parent AUCall x 100",19%
same,concentration at 0.083 h,"[1]; cynomolgus monkey, in vivo, po, 300 mg/kg, Concentration of compound 1 in whole blood, cynomolgus monkeys, single oral 300 mg/kg fosmetpantotenate, 0.083 hr, sum of diastereomers, LLOQ 1.58 nM",17.2 nM
same,concentration at 0.5 h,"[1]; cynomolgus monkey, in vivo, po, 300 mg/kg, Concentration of compound 1 in whole blood, cynomolgus monkeys, single oral 300 mg/kg fosmetpantotenate, 0.5 hr, sum of diastereomers, LLOQ 1.58 nM",2480 nM
same,concentration at 4 h,"[1]; cynomolgus monkey, in vivo, po, 300 mg/kg, Concentration of compound 1 in whole blood, cynomolgus monkeys, single oral 300 mg/kg fosmetpantotenate, 4 hr, sum of diastereomers, LLOQ 1.58 nM",54.6 nM
same,concentration at 8 h,"[1]; cynomolgus monkey, in vivo, po, 300 mg/kg, Concentration of compound 1 in whole blood, cynomolgus monkeys, single oral 300 mg/kg fosmetpantotenate, 8 hr, sum of diastereomers, LLOQ 1.58 nM",7.89 nM
same,Concentration of compound 1 in whole blood,"[1]; cynomolgus monkeys, single oral 300 mg/kg fosmetpantotenate, 0.083 hr, sum of diastereomers, LLOQ 1.58 nM, 300 mg/kg",11.28 nM
same,Concentration of compound 1 in whole blood,"[1]; cynomolgus monkeys, single oral 300 mg/kg fosmetpantotenate, 0.5 hr, sum of diastereomers, LLOQ 1.58 nM, 300 mg/kg",3160.36 nM
same,Concentration of compound 1 in whole blood,"[1]; cynomolgus monkeys, single oral 300 mg/kg fosmetpantotenate, 4 hr, sum of diastereomers, LLOQ 1.58 nM, 300 mg/kg",96.23 nM
same,Concentration of compound 1 in whole blood,"[1]; cynomolgus monkeys, single oral 300 mg/kg fosmetpantotenate, 8 hr, sum of diastereomers, LLOQ 1.58 nM, 300 mg/kg",4.57 nM
same,% Parent AUCAll,[2]; 300 mg/kg PO,39%
same,% Parent AUCAll,[2]; 700 mg/kg PO,22%
same,Whole Blood Conc. of compound 1,"[2]; single 100 mg/kg RE-024-02 PO, time 0.5, LLOQ 0.60 ng/mL",BQL
same,Whole Blood Conc. of compound 1,"[2]; single 100 mg/kg RE-024-02 PO, time 0.5, LLOQ 1.58 nM",BQL
same,Whole Blood Conc. of compound 1,"[2]; single 100 mg/kg RE-024-02 PO, time 1, LLOQ 0.60 ng/mL",BQL
same,Whole Blood Conc. of compound 1,"[2]; single 100 mg/kg RE-024-02 PO, time 1, LLOQ 1.58 nM",BQL
same,Whole Blood Conc. of compound 1,"[2]; single 100 mg/kg RE-024-02 PO, time 2, LLOQ 0.60 ng/mL",BQL
same,Whole Blood Conc. of compound 1,"[2]; single 100 mg/kg RE-024-02 PO, time 2, LLOQ 1.58 nM",BQL
same,Whole Blood Conc. of compound 1,"[2]; single 100 mg/kg RE-024-02 PO, time 4, LLOQ 0.60 ng/mL",BQL
same,Whole Blood Conc. of compound 1,"[2]; single 100 mg/kg RE-024-02 PO, time 4, LLOQ 1.58 nM",BQL
same,Whole Blood Conc. of compound 1,"[2]; single 100 mg/kg RE-024-02 PO, time 8, LLOQ 0.60 ng/mL",BQL
same,Whole Blood Conc. of compound 1,"[2]; single 100 mg/kg RE-024-02 PO, time 8, LLOQ 1.58 nM",BQL
same,Whole Blood Conc. of compound 1,"[2]; single 300 mg/kg RE-024-02 PO, time 0.33, LLOQ 0.60 ng/mL, 300 mg/kg",41.34 ng/mL and 21.6 ng/mL
same,Whole Blood Conc. of compound 1,"[2]; single 300 mg/kg RE-024-02 PO, time 0.33, LLOQ 1.58 nM, 300 mg/kg",108.7 nM and 56.79 nM
same,Whole Blood Conc. of compound 1,"[2]; single 300 mg/kg RE-024-02 PO, time 2, LLOQ 0.60 ng/mL",BQL
same,Whole Blood Conc. of compound 1,"[2]; single 300 mg/kg RE-024-02 PO, time 2, LLOQ 1.58 nM",BQL
same,Whole Blood Conc. of compound 1,"[2]; single 300 mg/kg RE-024-02 PO, time 4, LLOQ 0.60 ng/mL",BQL
same,Whole Blood Conc. of compound 1,"[2]; single 300 mg/kg RE-024-02 PO, time 4, LLOQ 1.58 nM",BQL
same,Whole Blood Conc. of compound 1,"[2]; single 300 mg/kg RE-024-02 PO, time 8, LLOQ 0.60 ng/mL",BQL
same,Whole Blood Conc. of compound 1,"[2]; single 300 mg/kg RE-024-02 PO, time 8, LLOQ 1.58 nM",BQL
same,Whole Blood Conc. of compound 1,"[2]; single 700 mg/kg RE-024-02 PO, time 8, LLOQ 0.60 ng/mL",BQL
same,Whole Blood Conc. of compound 1,"[2]; single 700 mg/kg RE-024-02 PO, time 8, LLOQ 1.58 nM",BQL
same,concentration at 0.167 h,"[2]; 100 mg/kg, single 100 mg/kg RE-024-02 PO, time 0.167, LLOQ 0.60 ng/mL",3.88 ng/mL
same,concentration at 0.167 h,"[2]; 100 mg/kg, single 100 mg/kg RE-024-02 PO, time 0.167, LLOQ 1.58 nM",10.2 nM
same,concentration at 0.33 h,"[2]; 100 mg/kg, single 100 mg/kg RE-024-02 PO, time 0.33, LLOQ 0.60 ng/mL",1.21 ng/mL
same,concentration at 0.33 h,"[2]; 100 mg/kg, single 100 mg/kg RE-024-02 PO, time 0.33, LLOQ 1.58 nM",3.18 nM
same,concentration at 0.33 h,"[2]; 300 mg/kg, single 300 mg/kg RE-024-02 PO, time 0.33, LLOQ 0.60 ng/mL",22.6 ng/mL
same,concentration at 0.33 h,"[2]; 300 mg/kg, single 300 mg/kg RE-024-02 PO, time 0.33, LLOQ 1.58 nM",59.3 nM
same,% Parent AUCAll,[3]; 100 mg/kg PO,129%
same,% Parent AUCAll,[3]; 300 mg/kg PO,307%
same,% Parent AUCAll,[3]; 700 mg/kg PO,257%
same,Compound 1 Whole Blood Conc.,"[3]; 0.033 hr, LLOQ 0.6 ng/mL, 100 mg/kg",4.6 ng/mL and 4 ng/mL and 74.4 ng/mL and 3.2 ng/mL
same,Compound 1 Whole Blood Conc.,"[3]; 0.033 hr, LLOQ 1.6 nM, 100 mg/kg",12.2 nM and 10.6 nM and 195.6 nM and 8.4 nM
same,Compound 1 Whole Blood Conc.,"[3]; 0.083 hr, LLOQ 0.6 ng/mL, 100 mg/kg",BQL and 1 ng/mL
same,Compound 1 Whole Blood Conc.,"[3]; 0.083 hr, LLOQ 1.6 nM, 100 mg/kg",BQL and 2.7 nM
same,Compound 1 Whole Blood Conc.,"[3]; 0.167 hr, LLOQ 0.6 ng/mL, 100 mg/kg",4.3 ng/mL and BQL and 10.8 ng/mL
same,Compound 1 Whole Blood Conc.,"[3]; 0.167 hr, LLOQ 1.6 nM, 100 mg/kg",11.4 nM and BQL and 28.4 nM
same,Compound 1 Whole Blood Conc.,"[3]; 0.333 hr, LLOQ 0.6 ng/mL, 100 mg/kg",BQL
same,Compound 1 Whole Blood Conc.,"[3]; 0.333 hr, LLOQ 1.6 nM, 100 mg/kg",BQL
same,Compound 1 Whole Blood Conc.,"[3]; 0.5 hr, LLOQ 0.6 ng/mL",BQL
same,Compound 1 Whole Blood Conc.,"[3]; 0.5 hr, LLOQ 1.6 nM",BQL
same,Compound 1 Whole Blood Conc.,"[3]; 1 hr, LLOQ 0.6 ng/mL",BQL
same,Compound 1 Whole Blood Conc.,"[3]; 1 hr, LLOQ 1.6 nM",BQL
same,Compound 1 Whole Blood Conc.,"[3]; 2 hr, LLOQ 0.6 ng/mL",BQL
